The assay concerns the target T1, Human type-X sPLA2 (Homo sapiens, UniProt O15496).
T1 construct: made in house; host or cells: CHO cells stably transfected with a pSVL SV40 late promoter expression vector; unpurified culture supernatant used as the enzyme source
T1 sequence (O15496 43-165): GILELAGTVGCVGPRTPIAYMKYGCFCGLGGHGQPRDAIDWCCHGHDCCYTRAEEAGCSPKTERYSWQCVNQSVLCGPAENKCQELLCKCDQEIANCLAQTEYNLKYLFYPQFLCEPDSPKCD
The assay can be described thus: type-X sPLA2 inhibition test (chromogenic assay, diheptanoylthio PC substrate). Format: biochemical. The following applies: diheptanoylthio PC 1 mM, 30 min at 40° C., pH 7.5, absorbance at 405 nm. The source says:
cDNA sequence encoding human type-X sPLA2 (Cupillard et al., J. Biol. Chem, 1997, 272, 15745-15752) was inserted into the downstream region of the promoter of pSVL SV40 Late Promoter Expression Vector (Amersham Pharmacia Biotech Inc.) that is an expression vector for mammalian cells. The obtained expression vector was transfected into the host CHO cells with a LipofectAMINE reagent (Gibco BRL Inc.) according to the manufacture's instruction to obtain the CHO cells stably expressing human type-X sPLA2.
In order to identify and evaluate an inhibitor of type-X sPLA2, the following chromogenic assay is utilized. This assay has been applied for high volume screening using a 96-well microtiterplate. A general explanation for this assay is described in “Analysis of Human Synovial Fluid Phospholipase A2 on Short Chain Phosphatidylcholine-Mixed Micelles: Development of a Spectrophotometric Assay Suitable for a Micortiterplate Reader” (Analytical Biochemistry, 204, pp 190-197, 1992 by Laure. J. Reynolds. Lori L. Hughes and Edward A. Dennis.
Human type-X sPLA2 was incubated (30 min at 40° C. (15 μl/well)) with diheptanoylthio PC (1 mM) in the presence of Triton X-100 (0.3 mM) and 5,5′-dithiobis(2-nitrobenzoic acid) (125 μM) in Tris-HCl buffer (25 mM, pH 7.5) containing CaCl2 (10 mM), KCl (100 mM), and bovine serum albumin (1.0 mg/mL). […]

pIC50: −log10 of the molar value.

As to `NC(=O)C1=CCCc2c1c1c(OCC(=O)O)nccn1c2Cc1ccccc1` [Compound 7], the pIC50 – broadly, −log10 of the IC50, conventionally taken in molar units – is 8.30.
